According to PMC9736281, “Flavonoid Constituents and Alpha-Glucosidase Inhibition of Solanum stramonifolium Jacq. Inflorescence with In Vitro and In Silico Studies” (Molecules, 2022):
In brackets after ≈: the same amount, converted by molar mass. Read-outs that look alike come from different tables or passages of the source. One block for each molecule: values may come before it.

Legend:
alpha-glucosidase enzyme [1] = experiment: Alpha-glucosidase inhibitory activity, enzymatic assay with pNPG; type: biochemical, Saccharomyces cerevisiae; conditions: for IC50: purchased standards, DMSO co-solvent not more than 5%
Procedure: All extracts and isolated compounds were examined for their alpha-glucosidase inhibitory activity according to Dej-adisai and Pitakput, 2015 [23]. Briefly, 0.01 M phosphate buffer (50 μL), samples or standard solution (50 μL), and alpha-glucosidase enzyme solution (50 μL) were added to the well plate. The mixture solution was incubated at 37 °C for 2 min. Next, para-nitrophenyl-α-D-glucopyranoside solution (50 μL) was added. The enzymatic inhibition was evaluated from the yellow final product, p-nitrophenol (pNP). The color of the reaction was detected by visible light at 405 nm of SPECTROstar Nano spectrophotometer (BMG Labtech, Ortenberg, Germany). The product absorption was converted to velocity (V) by using Equation (1). Then, the velocity was used to calculated the percentage of inhibition by Equation (2). Furthermore, the ability of sample was performed by IC50 value, which was generated from the calibration curve of percentages of inhibition at five different sample concentrations. Velocity = ∆ Absorbance at 405 nm/∆ Time(1) % Inhibition = [(Vcontrol − Vsample)/Vcontrol] × 100(2)

alpha-glucosidase enzyme [2] = conditions: cited from earlier work
alpha-glucosidase enzyme [3] = experiment: Enzyme kinetic study (Lineweaver-Burk plot, secondary plot); type: biochemical, Saccharomyces cerevisieae
Procedure: To determine the mode of inhibition, the enzyme kinetic procedure was performed as described by Sakulkeo et al.. The double reciprocal Lineweaver–Burk plot was constructed and used for the mode of action determination. The inhibition constant (Ki) was conducted from the secondary plot. Briefly, the 5 concentrations of substrate pNPG (2.5–0.125 mM), the enzyme from Saccharomyces cerevisieae (EC 3.2.1.20) at 1 unit/mL, and 3 concentrations of sample were tested in triplicate.

- % Inhibition at 200 μg/mL (alpha-glucosidase enzyme [1]; alpha-glucosidase): 0.84 ± 0.21%
SMILES: COc1cc(O)c2c(=O)c(OC)c(-c3cc(OC)c(OC)c(OC4OC(CO)C(O)C(O)C4O)c3)oc2c1 (stereo not drawn) [Compound 5, 5-hydroxy 3-7-4′-5′-tetramethoxyflavone-3′-O-glucopyranoside]

- % Inhibition at 400 μg/mL (alpha-glucosidase enzyme [1]; alpha-glucosidase): 8.51 ± 3.79%
SMILES: COc1cc(O)c2c(=O)c(OC)c(-c3cc(OC)c(OC)c(OC)c3)oc2c1 [Compound 2, 5-hydroxy-3,7,3′,4′,5′-pentamethoxyflavone]

SMILES: O=c1c(O)c(-c2ccc(O)cc2)oc2cc(O)cc(O)c12 [Compound 3, kaempferol]
- % Inhibition at 400 μg/mL (alpha-glucosidase enzyme [1]; alpha-glucosidase): 13.01 ± 2.69%
- IC50 (alpha-glucosidase enzyme [1]): 585.63 µg/mL (≈ 2050 µM)
- Inhibition Type (alpha-glucosidase enzyme [2]; ref [13],[14]): mixed-type
- Inhibition Type (alpha-glucosidase enzyme [2]; ref [15]): non-competitive
- Inhibition Type (alpha-glucosidase enzyme [3]; listed as Kaempferol): Mixed
- Inhibition Type (alpha-glucosidase enzyme [3]; listed as kaempferol): mixed-type

SMILES: O=c1c(OC2O[C@H](CO)[C@@H](O)[C@H](O)[C@H]2O)c(-c2ccc(O)cc2)oc2cc(O)cc(O)c12 (stereo partly drawn) [Compound 6b, kaempferol 3-O-glucopyranoside]
- IC50 (alpha-glucosidase enzyme [1]): >600 µg/mL
- Inhibition Type (alpha-glucosidase enzyme [2]; ref [16]): non-competitive
- Inhibition Type (alpha-glucosidase enzyme [3]; listed as Astragalin): Mixed
- Inhibition Type (alpha-glucosidase enzyme [3]; listed as astragalin): mixed-type

SMILES: C[C@H]1O[C@H](O[C@H]2[C@H](O)[C@@H](O)[C@@H](O[C@H]3[C@H](O)[C@@H](O)C(O)O[C@@H]3CO)O[C@@H]2CO)[C@H](O)[C@@H](O)[C@@H]1N[C@H]1C=C(CO)[C@@H](O)[C@H](O)[C@H]1O (stereo partly drawn) [Acarbose, acarbose, reference compound]
- % Inhibition at 200 μg/mL (alpha-glucosidase enzyme [1]; alpha-glucosidase): 45.27 ± 4.5%
- % Inhibition at 400 μg/mL (alpha-glucosidase enzyme [1]; alpha-glucosidase): 60.78 ± 3.61%
- % Inhibition at 2 mg/mL (alpha-glucosidase enzyme [1]; alpha-glucosidase, sample at 2 mg/mL): 76.44 ± 3.06%
- Inhibition Type (alpha-glucosidase enzyme [3]): Competitive

SMILES: O=c1c(O)c(-c2ccc(O)cc2)oc2cc(O[C@@H]3O[C@H](CO)[C@@H](O)[C@H](O)[C@H]3O)cc(O)c12 [Compound 4, kaempferol 7-O-β-glucopyranoside]
- % Inhibition at 400 μg/mL (alpha-glucosidase enzyme [1]; alpha-glucosidase): 7.68 ± 0.33%

- % Inhibition at 400 μg/mL (alpha-glucosidase enzyme [1]; alpha-glucosidase): 12.78 ± 4.89%
SMILES: COc1cc(O)c2c(=O)c(OC)c(-c3cc(O)c(OC)c(OC)c3)oc2c1 [Compound 1, myricetin 3, 4′, 5′, 7-tetramethyl ether]
